Reference: patent US20230212163A1, “2-(HET)ARYL-SUBSTITUTED CONDENSED HETEROCYCLIC DERIVATIVES AS PEST CONTROL AGENTS” (Bayer Aktiengesellschaft, priority 2020, published 2023)

Experiments:
Assay type in all cases: in vivo
Diabrotica balteata = Diabrotica balteata spray test; settings: Diabrotica balteata, 168 h, after 7 days; for pest or weed control at 20 g/ha: application rate 20 g/ha; for pest or weed control at 100 g/ha: application rate 100 g/ha; for pest or weed control at 500 g/ha: application rate 500 g/ha (=160 μg/cavity)
Protocol: [table] To produce a suitable active compound formulation, 1 part by weight of active compound is dissolved using the stated parts by weight of solvent and made up with water containing an emulsifier concentration of 1000 ppm until the desired concentration is attained. To produce further test concentrations, the formulation is diluted with emulsifier-containing water. Pre-swollen wheat grains (Triticum aestivum) are incubated in a multiwell plate filled with agar and a little water for one day (5 seed grains per cavity). The germinated wheat grains are sprayed with an active compound formulation of the desired concentration. Subsequently, each cavity is infected with 10-20 beetle larvae of Diabrotica balteata. After 7 days, the efficacy in % is determined. 100% means that all wheat plants have grown as in the untreated, uninfected control; 0% means that no wheat plant has grown.

Spodoptera frugiperda = Spodoptera frugiperda spray test (maize leaf discs); settings: Spodoptera frugiperda, foliar, 168 h, application rate 100 g/ha, after 7 days
Protocol: [table] To produce a suitable active compound formulation, 1 part by weight of active compound is dissolved using the stated parts by weight of solvent and made up with water containing an emulsifier concentration of 1000 ppm until the desired concentration is attained. To produce further test concentrations, the formulation is diluted with emulsifier-containing water. Leaf discs of maize (Zea mays) are sprayed with an active compound formulation of the desired concentration and, after drying, populated with caterpillars of the fall armyworm (Spodoptera frugiperda). After 7 days, the efficacy in % is determined. 100% means that all the caterpillars have been killed; 0% means that no caterpillar has been killed.

Nezara viridula = Nezara viridula spray test; settings: Nezara viridula, 96 h, application rate 500 g/ha, after 4 days
Protocol: [table] To produce a suitable active compound formulation, 1 part by weight of active compound is dissolved using the stated parts by weight of solvent and made up with water containing an emulsifier concentration of 1000 ppm until the desired concentration is attained. To produce further test concentrations, the formulation is diluted with emulsifier-containing water. Barley plants (Hordeum vulgare) are sprayed with an active compound formulation of the desired concentration and are infected with larvae of the Southern green shield bug (Nezara viridula). After 4 days, the efficacy in % is determined. 100% means that all of the shield bugs have been killed; 0% means that none of the shield bugs have been killed.

SMILES	pest or weed control at 20 g/ha (Diabrotica balteata) [%]	pest or weed control at 100 g/ha (Diabrotica balteata) [%]	pest or weed control at 500 g/ha (Diabrotica balteata; read-out: efficacy) [%]	pest or weed control at 100 g/ha (Spodoptera frugiperda) [%]	pest or weed control at 500 g/ha (Nezara viridula) [%]	pest or weed control at 31.25 g/ha (Diabrotica balteata; application rate 31.25 g/ha (=10 μg/cavity), read-out: efficacy) [%]	pest or weed control at 125 g/ha (Diabrotica balteata; application rate 125 g/ha (=40 μg/cavity), read-out: efficacy) [%]
CCS(=O)(=O)c1ccc(-n2ncn(-c3ccc(I)cc3)c2=O)nc1-c1nc2cc(S(=O)(=O)C(F)(F)F)ccc2o1 [Example I-12]	100	100	100	100			
CCS(=O)(=O)c1ccc(-n2ccn(-c3cccc(C4(C#N)CC4)c3)c2=O)nc1-c1nc2cc(C(F)(F)C(F)(F)F)ccc2o1 [Example I-54]	100	100		100			
CCS(=O)(=O)c1ccc(-n2ncn(-c3cccc(Cl)c3)c2=O)nc1-c1nc2cc(S(=O)(=O)C(F)(F)F)ccc2o1 [Example I-13]	100	100	100	100			
CCS(=O)(=O)c1ccc(-n2ncn(-c3ccc(Br)cc3)c2=O)nc1-c1nc2cc(S(=O)(=O)C(F)(F)Cl)ccc2o1 [Example I-09]	80			100			
CCS(=O)(=O)c1ccc(-n2ncn(-c3ccc(Cl)cc3)c2=O)nc1-c1nc2cc(S(=O)(=O)C(F)(F)Cl)ccc2o1 [Example I-08]	100	80	100	100			
CCS(=O)(=O)c1ccc(-n2ncn(-c3cccc(Cl)c3)c2=O)nc1-c1nc2cc(OC(F)(F)C(F)(F)F)ccc2o1 [Example I-25]	100	100		100			
CCS(=O)(=O)c1ccc(-n2ncn(C3CCCC3)c2=O)nc1-c1nc2cc(C(F)(F)C(F)(F)F)ccc2o1 [Example I-38]				100			
CCS(=O)(=O)c1ccc(-n2ncn(-c3cccc(C#N)c3)c2=O)nc1-c1nc2cc(OC(F)(F)C(F)(F)F)ccc2o1 [Example I-30]	100	100		100			
CCS(=O)(=O)c1ccc(-n2ncn(-c3cccc(Br)c3)c2=O)nc1-c1nc2cc(OC(F)(F)C(F)(F)F)ccc2o1 [Example I-26]	100	100		100			
CCS(=O)(=O)c1ccc(-n2ncn(-c3ccc(F)cc3)c2=O)nc1-c1nc2cc(OC(F)(F)C(F)(F)F)ccc2o1 [Example I-22]	100	100		100			
CCS(=O)(=O)c1ccc(-n2ncn(-c3ccc(F)cn3)c2=O)nc1-c1nc2cc(S(=O)(=O)C(F)(F)F)ccc2o1 [Example I-55]		100		100			
CCS(=O)(=O)c1ccc(-n2ncn(-c3ccc(Br)c(Cl)c3)c2=O)nc1-c1nc2cc(S(=O)(=O)C(F)(F)F)ccc2o1 [Example I-20]	100	100		100			
CCS(=O)(=O)c1ccc(-n2ncn(-c3ccc(C4(C#N)CC4)cc3)c2=O)nc1-c1nc2cc(S(=O)(=O)C(F)(F)F)ccc2o1 [Example I-17]	100	100	100				
CCS(=O)(=O)c1ccc(-n2ncn(-c3ccc(C#N)c(Cl)c3)c2=O)nc1-c1nc2cc(S(=O)(=O)C(F)(F)F)ccc2o1 [Example I-28]	100			100			
CCS(=O)(=O)c1ccc(-n2ncn(-c3ccc(Cl)cc3)c2=O)nc1-c1nc2cc(OC(F)(F)C(F)(F)F)ccc2o1 [Example I-21]		100		100			
CCS(=O)(=O)c1ccc(-n2ncn(-c3ccc(Cl)c(Br)c3)c2=O)nc1-c1nc2cc(S(=O)(=O)C(F)(F)F)ccc2o1 [Example I-19]	100	100		100			

SMILES	pest or weed control at 20 g/ha (Diabrotica balteata) [%]	pest or weed control at 100 g/ha (Diabrotica balteata) [%]	pest or weed control at 500 g/ha (Diabrotica balteata; read-out: efficacy) [%]	pest or weed control at 100 g/ha (Spodoptera frugiperda) [%]	pest or weed control at 500 g/ha (Nezara viridula) [%]	pest or weed control at 31.25 g/ha (Diabrotica balteata; application rate 31.25 g/ha (=10 μg/cavity), read-out: efficacy) [%]	pest or weed control at 125 g/ha (Diabrotica balteata; application rate 125 g/ha (=40 μg/cavity), read-out: efficacy) [%]
CCS(=O)(=O)c1ccc(-n2ncn(C3CC3)c2=O)nc1-c1nc2cc(C(F)(F)C(F)(F)F)ccc2o1 [Example I-50]	100	100		100			
CCS(=O)(=O)c1ccc(-n2ncn(-c3ccc(Br)cc3)c2=O)nc1-c1nc2cc(C(F)(F)C(F)(F)F)ccc2o1 [Example I-48]		100		100			
CCS(=O)(=O)c1ccc(-n2ncn(-c3cccc(C4(C#N)CC4)c3)c2=O)nc1-c1nc2cc(OC(F)(F)C(F)(F)F)ccc2o1 [Example I-31]	100			100			
CCS(=O)(=O)c1ccc(-n2ncn(-c3ccc(Cl)cc3)c2=O)cc1-c1nc2cc(Br)ccc2o1 [Example I-53]		100		100			
CCS(=O)(=O)c1ccc(-n2ncn(-c3ccc(Br)cc3)c2=O)nc1-c1nc2cc(OC(F)(F)C(F)(F)F)ccc2o1 [Example I-23]		100		100			
CCS(=O)(=O)c1ccc(-n2ncn(-c3cccc(Br)c3)c2=O)nc1-c1nc2cc(S(=O)(=O)C(F)(F)F)ccc2o1 [Example I-15]	100	100	100	100			
CCS(=O)(=O)c1ccc(-n2ncn(-c3ccc(C#N)cc3)c2=O)nc1-c1nc2cc(S(=O)(=O)C(F)(F)Cl)ccc2o1 [Example I-10]	80	100	100				
CCS(=O)(=O)c1ccc(-n2ncn(-c3ccc(F)cc3)c2=O)nc1-c1nc2cc(C(F)(F)F)ncc2o1 [Example I-35]					100		
CCS(=O)(=O)c1ccc(-n2ncn(-c3ccc(F)cc3)c2=O)nc1-c1nc2cc(C(F)(F)F)ccc2o1 [Example I-36]					100		
CCS(=O)(=O)c1ccc(-n2ncn(-c3ccc(F)cc3)c2=O)nc1-c1nc2cc(OC(F)(F)F)ccc2o1 [Example I-33]					100		
CCS(=O)(=O)c1ccc(-n2ncn(-c3cncc(F)c3)c2=O)nc1-c1nc2cc(S(=O)(=O)C(F)(F)F)ccc2o1 [Example I-40]		100		100			
CCS(=O)(=O)c1ccc(-n2ncn(-c3ccc(F)cc3)c2=O)nc1-c1nc2cc(S(=O)(=O)C(F)(F)Cl)ccc2o1 [Example I-07]			100	100		100	100
CCS(=O)(=O)c1ccc(-n2ncn(C3CC3)c2=O)nc1-c1nc2cc(OC(F)(F)C(F)(F)F)ccc2o1 [Example I-49]	100	80		100			
CCS(=O)(=O)c1ccc(-n2ncn(-c3cccc(F)c3)c2=O)nc1-c1nc2cc(OC(F)(F)C(F)(F)F)ccc2o1 [Example I-24]	100	100		100			
CCS(=O)(=O)c1ccc(-n2ncn(-c3ccc(I)cc3)c2=O)nc1-c1nc2cc(S(=O)(=O)C(F)(F)Cl)ccc2o1 [Example I-11]		100	100	100			
